Test results as given in ChEMBL document CHEMBL1201862, “PubChem BioAssay data set” (2004).
Active and inactive are the calls of the source.

How the values were obtained:
[1] = A cytotoxicity screen of small molecule inhibitors of the PhoP region in Salmonella typhi identified in the primary screen. [Related pubchem assays: 1850, 1864, 1985 ]; format: functional
[2] = target: Luciferin 4-monooxygenase (Photinus pyralis, UniProt P08659); assay: inhibition of purified Photinus pyralis luciferase – biochemical, luminescence, dose response (AID 1891)
[3] = Luminescence Cell-Based Dose Confirmation HTS to Identify Inhibitors of Platelet Dense Granule Release. [Related pubchem assays: 1663 (Primary HTS), 1678 (Summary of Project)]; format: functional
Cytochrome P450 3A4 = Cytochrome P450 3A4 (Homo sapiens, UniProt P08684); settings: Potency;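 further: confirmatory qHTS run detecting inhibitors and substrates of CYP3A4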
BJ [4] = assay: BJ-TERT fibroblast viability loss – cell-based, RAS-independent, luminescence, dose response (AID 1933); format: functional; settings: Homo sapiens
BJ [5] = assay: cells; format: functional, cell-based; settings: Homo sapiens
BJ [6] = assay: BJ-TERT-LT-ST fibroblast viability loss – cell-based, RAS-independent, luminescence, dose response (AID 1935); format: functional; settings: Homo sapiens;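 further: BJ fibroblasts immortalized with TERT plus LT and ST oncogenes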
[7] = DRD fibroblast viability loss – cell-based, non-viral oncogenic, luminescence, dose response (AID 1934); format: functional; settings: Homo sapiens
[8] = Trypanosoma cruzi growth suppression in host cells – NIH3T3 host cells, beta-gal luminescence, confirmation (AID 2044); format: functional, cell-based;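 further: intracellular parasites grown in NIH/3T3 mouse fibroblasts as host cells; luminescent beta-galactosidase reporter signal from transgenic T. cruzi replicating inside host cells; inhibitors lower the luminescence signal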
[9] = NIH-3T3 fibroblast cytotoxicity, dose response, cytotoxicity control, cell-based, fluorescence, Alamar Blue, secondary assay (AID 2327); format: functional;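 further: NIH-3T3 mouse fibroblasts cultured with fluconazole at 8 µg/mL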
[10] = NIH3T3 cell viability loss – ATP luminescence, mouse fibroblasts, counter-screen, dose response (AID 2010); format: functional, cell-based;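 further: cells exposed to compound for about 90 hours before reading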
[11] = fluconazole-exposed Candida albicans growth modulators – fluorescence, retest, confirmation (AID 2467); format: functional, cell-based
[12] = reduction of Shn3 3'UTR-driven luciferase in osteoblasts – cell-based, Clone20 osteoblasts, firefly luciferase, cherry-picked, dose response (AID 624132); format: functional;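 further: firefly luciferase luminescence from reporter carrying the Shn3 3'UTR in osteoblasts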
[13] = loss of viability in HepG2 cells – cell-based, CellTiter-Glo, cherry-picked, cytotoxicity control for Shn3 inhibitor project, dose response (AID 624134); format: functional
[14] = non-specific 3'UTR reporter inhibition in Clone20-Shn3RL – cell-based, Renilla luciferase, cherry-picked, counter-screen for Shn3 inhibitor project, dose response (AID 624133); format: functional
INS1 = assay: INS-1E survival protection against cytokine death – cell-based, luminescence, retest, dose response (AID 449756); format: functional; settings: Rattus norvegicus;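 further: cell death triggered by IL-1 beta plus TNF-alpha plus IFN-gamma mixture; protective hits raise ATP signal compared with cytokine alone wells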
[15] = HIV-1 AD8 envelope cell-cell fusion blockers – cherry-pick, dose response (AID 652062); format: functional, cell-based;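 further: luciferase signal from cell-cell fusion driven by HIV-1 clade B AD8 Env; potency is for inhibitors of fusion seen as a drop in luminescence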
[16] = blockers of HIV-1 ZM109 envelope-driven cell-cell fusion – HeLa effector, CEM target cells, luciferase, cherry-pick, dose response (AID 652058); format: functional, cell-based;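 further: luciferase signal from HIV-1 Env mediated cell-cell fusion of effector and target cells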
Estrogen receptor beta = Estrogen receptor beta (Homo sapiens, UniProt Q92731); assay: blockers of SRC-3 recruitment to ERβ – biochemical, ELISA, streptavidin-HRP readout, orthogonal assay, confirmation (AID 1060)
Estrogen receptor = target: T1, Estrogen receptor (Homo sapiens, UniProt P03372);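 further: potency for inhibiting coactivator peptide recruitment to the receptor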
T1 sequence (P03372 whole entry): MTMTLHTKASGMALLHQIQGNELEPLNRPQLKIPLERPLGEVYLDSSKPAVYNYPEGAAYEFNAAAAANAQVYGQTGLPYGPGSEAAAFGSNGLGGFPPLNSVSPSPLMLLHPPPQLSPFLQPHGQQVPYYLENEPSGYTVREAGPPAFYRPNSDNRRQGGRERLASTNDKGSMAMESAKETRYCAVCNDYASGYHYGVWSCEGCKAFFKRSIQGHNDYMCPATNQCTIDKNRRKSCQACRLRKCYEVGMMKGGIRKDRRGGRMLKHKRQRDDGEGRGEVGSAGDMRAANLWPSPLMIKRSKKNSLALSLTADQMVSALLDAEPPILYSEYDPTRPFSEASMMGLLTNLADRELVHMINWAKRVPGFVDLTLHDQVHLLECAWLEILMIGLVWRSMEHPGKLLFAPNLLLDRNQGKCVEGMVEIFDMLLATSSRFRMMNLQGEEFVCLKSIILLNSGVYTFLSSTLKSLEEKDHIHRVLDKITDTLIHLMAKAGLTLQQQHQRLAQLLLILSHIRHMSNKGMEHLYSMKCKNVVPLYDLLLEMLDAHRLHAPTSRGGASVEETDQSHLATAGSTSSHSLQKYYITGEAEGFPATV

Cytochrome P450 3A4, sequence (P08684 whole entry): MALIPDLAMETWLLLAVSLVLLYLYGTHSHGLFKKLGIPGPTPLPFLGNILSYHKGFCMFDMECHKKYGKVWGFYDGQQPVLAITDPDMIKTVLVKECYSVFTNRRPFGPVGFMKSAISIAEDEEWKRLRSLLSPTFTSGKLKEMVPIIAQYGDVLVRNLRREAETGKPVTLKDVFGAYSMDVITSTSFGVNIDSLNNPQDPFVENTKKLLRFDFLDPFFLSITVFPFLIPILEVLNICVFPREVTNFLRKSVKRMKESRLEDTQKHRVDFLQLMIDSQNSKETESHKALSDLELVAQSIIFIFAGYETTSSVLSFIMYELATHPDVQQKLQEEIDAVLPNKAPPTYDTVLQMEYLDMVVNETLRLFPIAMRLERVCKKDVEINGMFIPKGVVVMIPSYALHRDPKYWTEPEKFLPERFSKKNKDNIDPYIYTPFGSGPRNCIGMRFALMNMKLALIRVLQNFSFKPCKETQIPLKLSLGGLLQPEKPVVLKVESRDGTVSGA
Luciferin 4-monooxygenase, sequence (P08659 whole entry): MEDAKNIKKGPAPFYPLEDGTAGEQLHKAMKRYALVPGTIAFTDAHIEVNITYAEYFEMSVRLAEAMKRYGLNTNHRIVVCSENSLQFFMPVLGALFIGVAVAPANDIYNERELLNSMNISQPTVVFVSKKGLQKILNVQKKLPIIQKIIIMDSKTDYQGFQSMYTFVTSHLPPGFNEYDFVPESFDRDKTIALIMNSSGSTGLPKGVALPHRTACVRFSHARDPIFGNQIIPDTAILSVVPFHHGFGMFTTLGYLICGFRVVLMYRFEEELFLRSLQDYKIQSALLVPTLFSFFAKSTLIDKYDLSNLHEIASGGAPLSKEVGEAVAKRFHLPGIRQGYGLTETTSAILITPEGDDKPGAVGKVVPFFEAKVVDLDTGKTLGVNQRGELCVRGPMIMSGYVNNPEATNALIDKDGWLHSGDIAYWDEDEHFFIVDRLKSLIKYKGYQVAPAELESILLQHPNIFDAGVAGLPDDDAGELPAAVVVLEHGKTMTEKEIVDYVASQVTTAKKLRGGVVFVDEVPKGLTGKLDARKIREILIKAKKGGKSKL
Estrogen receptor beta, sequence (Q92731 whole entry): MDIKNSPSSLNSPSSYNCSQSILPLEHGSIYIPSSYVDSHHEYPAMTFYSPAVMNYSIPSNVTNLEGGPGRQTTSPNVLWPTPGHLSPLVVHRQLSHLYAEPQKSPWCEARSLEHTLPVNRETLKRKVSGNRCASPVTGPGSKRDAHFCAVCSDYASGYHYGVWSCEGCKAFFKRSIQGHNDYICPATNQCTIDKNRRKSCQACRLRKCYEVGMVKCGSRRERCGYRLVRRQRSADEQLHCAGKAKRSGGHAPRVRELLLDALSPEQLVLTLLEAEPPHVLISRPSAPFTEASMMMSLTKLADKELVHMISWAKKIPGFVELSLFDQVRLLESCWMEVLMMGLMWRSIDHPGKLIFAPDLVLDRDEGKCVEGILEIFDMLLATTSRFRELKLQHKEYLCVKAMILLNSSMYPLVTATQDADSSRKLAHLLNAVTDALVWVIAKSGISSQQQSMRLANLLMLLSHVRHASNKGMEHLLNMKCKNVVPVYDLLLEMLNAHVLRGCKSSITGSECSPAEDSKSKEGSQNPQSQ

Clc1ccc(CNCc2cccs2)cc1Cl
EC50 [1]: > 50 µM (active)

O=C1NC(=O)C2(CCC(C(=O)O)C2)N1 (stereo not given)
EC50 [2]: > 112 µM (not active) | EC50 [3]: > 112 µM (not active)

COC(=O)c1ccc(C(/C=C/[C@@H](C)C(=O)N(C)C)NC(=O)OCc2ccccc2)cc1 (stereo not given in full)
AC50 (Cytochrome P450 3A4): 10 µM (inconclusive)

C=CCn1c(O)c(N=NC(=O)c2cccnc2)c2cc(Br)ccc21
EC50 [1]: > 50 µM (active)

COc1cc(SC)ccc1C(=O)NNC(=O)c1cc(C)oc1C
EC50 [2]: 1.4 µM (active) | EC50 [3]: 8.87 µM (active) | EC50 (BJ [4]): 3.71 µM (inconclusive) | EC50 (BJ [5]): 6.06 µM (active) | EC50 (BJ [6]): 18.2 µM (active) | EC50 [7]: 3.82 µM (active)

Cc1ccc(CC(=O)Nc2ncc([N+](=O)[O-])s2)cc1
EC50 [1]: > 50 µM (active) | EC50 [8]: 0.687 µM (active) | EC50 [9]: 37.3 µM (active) | EC50 [10]: > 30 µM (not active) | EC50 [11]: 0.033 µM (active)

Cc1ccc(C(=O)Nc2cccc3[nH]c(C(F)(F)F)nc23)cc1
AC50 [12]: 3.93 µM (active) | AC50 [13]: 33.6 µM (active) | AC50 [14]: 10.3 µM (active) | AC50 (INS1): 7.25 µM (active)

CC1(C)CC[C@]2(C(=O)O)CC[C@@]3(C)C(=CCC4[C@@]5(C)CCC(O)[C@@](C)(CO)C5CC[C@@]43C)C2C1 (stereo not given in full)
AC50 (Cytochrome P450 3A4): 12.6 µM (inconclusive)

COc1ccccc1-c1c(C(F)(F)F)n[nH]c1-c1ccc(O)cc1O
AC50 [12]: 0.708 µM (active) | AC50 [15]: 19 µM (active) | AC50 [13]: > 70 µM (inactive) | AC50 [14]: 1.42 µM (active) | AC50 [16]: 0.97 µM (active)

CCOC(=O)C1CCCN(C(=O)c2cc3ncc(Br)cn3n2)C1 (stereo not given)
IC50 (Estrogen receptor beta): 0.0694 µM (not active) | IC50 (Estrogen receptor): 20.7 µM (active)

COc1ccc(NC(=O)c2cc(-c3ccc(C)o3)nc3ccccc23)cc1OC
IC50 (Estrogen receptor beta): 24.7 µM (not active)

COC1C=CC23c4cc5c(cc4CN(CC2O)C3C1)OCO5 (stereo not given)
AC50 (Cytochrome P450 3A4): 39.8 µM (inconclusive)
